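Protocol summary: plate cells (96-well), add compound at 5 concentrations, incubate 48 h, interpolate endpoints linearly. GI50 marks 50% less growth. TGI marks complete inhibition of growth.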
Key:
Assay in all cases: NCI-60 cell line screen, 48 h
[1] = system: MDA-MB-435
[2] = system: NCI/ADR-RES ovarian
[3] = system: PC-3 prostate
[4] = system: T-47D breast
[5] = system: HS 578T breast
[6] = system: MCF7 breast

SMILES	GI50 [1] [nM]	TGI [1] [µM]	GI50 [2] [µM]	TGI [2] [µM]	GI50 [3] [nM]	TGI [3] [µM]	GI50 [4] [nM]	TGI [4] [µM]	GI50 [5] [nM]	TGI [5] [µM]	GI50 [6] [nM]	TGI [6] [µM]
S=c1ssc(Sc2ccccn2)c1Cl	16800	31.5	13.9	26.8	11900	24.2	17000	34.6				
CCN1C(=O)N(CC)C2C1NN=c1s/c(=C3\C(=O)N(C)c4ccccc43)c(=O)n12 (stereo not given)	221	0.663	0.729	38.7	1140	> 100	632	> 100	542	> 39.9	373	31.2
C=C(C)[C@@H]1CC[C@@]2(C)[C@H]1[C@H]1CCC3[C@@]4(C)CC[C@H](O)C(C)(C)[C@@H]4CC[C@@]3(C)[C@]1(C)C[C@@H]2O (stereo not given in full)		84.9		> 100		> 100		> 100				> 100
Cn1cc(-c2ccc(CNc3cc(-c4cnc5cc(OCCCN6CCCC6)ccn45)ncn3)cc2)cn1	1710	3.19	5.11	> 100	3630	> 100	18700	43.1	3520	26.2	2450	10.4
C/C(=N\NC(N)=O)C(CN(C)C)C(c1ccccc1)c1c(O)c2ccccc2oc1=O (stereo not given)		> 100		> 100		> 100		> 100		> 100		> 100
CCOC(=O)N1CCN(S(=O)(=O)c2oc(-c3ccc(Cl)cc3)nc2C#N)CC1	2320	5.24	12.2	47.6	2240	5.77	2290	5.94	4200	23.8	1750	4.21
Nc1nc(OCc2ccccc2)nc2[nH]ncc12	16200	30.5	17.6	42.4	16800	39.9	4120	9.69	17500	38.5	16100	33.1
COc1ccccc1-c1c(C)nn2c(NCc3ccccn3)cc(C)nc12	23000	> 50	24.5	> 50	30600	> 50	1040	> 50	> 44700	> 50	2920	> 50
Cc1cc(N2CCCC2)nc(N(CCCNc2ccnc3cc(Cl)ccc23)Cc2ccc3c(c2)OCO3)n1	1260	2.56	1.43	3.92	1470	12	1420	4.66	1740	4.21	1170	4.98
CC(C)OC(=O)c1ccc2[nH]c(O)c(C(=Nc3ccc(N(C)C(=O)CN4CCN(C)CC4)cc3)c3ccccc3)c2c1	1070	2.3			494	2.17	1200	3.6	99.4	1.15	485	2.07
C[C@H](CSC(=O)c1ccccc1)C(=O)N1c2ccccc2C[C@H]1C(=O)O				> 100		> 100		> 100		> 100		> 100
CN(C)c1ccc(C(N)=O)cn1		> 100		> 100		> 100				> 100		> 100
O=[N+]([O-])c1nccn1CC1OC(n2ccnc2[N+](=O)[O-])C(O)C(O)C1O (stereo not given)						> 100		> 100		> 100		> 100
Cc1ccc2c(c1)ncn2-c1ncnc2c1CC(C)c1ccccc1N2C (stereo not given)			0.058	30.4	56.1	17.7	2170	8.53	104	51	36.8	12.5
COc1cc(/C=C(/c2ccccc2)[N+](=O)[O-])c(OC)c2c1OCO2	1500	3.08	2.43	7.37	1710	3.59	1210	5.57	2990	14.9		
CC[CH2][Pb]([CH2]CC)([CH2]CC)[NH]S(=O)(=O)c1ccc(C)cc1	19.4	0.0766	0.217	0.641	70.1	0.196			63.8	0.354	65.1	0.418
N#CC1C(N)=NNC12Nc1ccccc1N2 (stereo not given)	14100	63.7	24.5	74.5	22200	> 100	50300	> 100	4800	25.7		
COc1cnc2c(c1)C(=O)c1c-2n(CCCN2CCCC2)c(=O)c2cc(Cl)ccc12	5060	10.9	0.222	8.86	859	9.48	1210	18.9	6870	17.9		
